Data on two sequences can be found in paper PMC5056396, “Hexokinase I N-terminal based peptide prevents the VDAC1-SOD1 G93A interaction and re-establishes ALS cell viability” (Scientific Reports, 2016).

Experiment [1] has as its system VDAC1-SOD1 G93A interaction. The experiment in a line: In vitro VDAC1-SOD1 G93A binding assay after pre-incubation with HK1 or peptide (western blot, densitometry). Particulars: for reduction of SOD1 G93A in VDAC1-bound fraction: 6.25 μM SOD1 G93A, n = 3. The arrangement: species or system human. The text has this: It is well known that HKs bind to VDAC1 in physiological conditions. We hypothesized that the available area for interaction with soluble proteins is a limited, exposed portion of the transmembrane pore VDAC1. […] For this reason, we repeated the VDAC1-SOD1 G93A binding assay, adding increasing concentrations of HK1. […] The reduction corresponds to the increase of HK1 in VDAC1-bound fraction, and it is proportional to the HK1 concentrations added in the assay (Fig. 3A).
In order to evaluate the NHK1 ability to interfere with VDAC1-SOD1 G93A interaction, a binding assay was performed. Increasing concentrations of NHK1 were added to immobilized-VDAC1, before SOD1 G93A addition. […] In fact, a 20-fold smaller concentration of peptide was used to obtain a result similar to that obtained by using the whole HK1 in the previous experiment (see Fig. 3A).
Recombinant VDAC1 was immobilized onto Ni-NTA Magnetic Agarose Beads (Qiagen) by exploiting its 6xHis-tag, according with manufacture’s protocol. For each experiment, a large excess of VDAC1 (30 μM) were incubated with 50 μL of beads suspension in Interaction Buffer (IB) (300 mM NaCl, 50 mM NaH2PO4, 20 mM imidazole, pH 8.0) to saturate all sites. Beads were collected using the magnet-based system DynaMag-2 (Life Technologies) and washed twice in Wash Buffer (300 mM NaCl, 50 mM NaH2PO4, 20 mM imidazole, 0.05% Tween-20, pH 6.3) to remove any excess of VDAC1. Beads-immobilized VDAC1 were incubated with 6.25 μM SOD1 WT or G93A, for 1 h at RT, under constant shaking, in 100 μL of IB. The assay was also performed by pre-incubating immobilized-VDAC1 for an extra 1 h with increasing concentration of purified human HK1 (0, 100, 200 μM) or NHK1 peptide (0, 5, 10, 25 μM), before SOD1 G93A addition. Beads were recovered using Dyna-Mag2 system and VDAC1-complexes were eluted from beads using 50 μL of Elution Buffer (300 mM NaCl, 50 mM NaH2PO4, 300 mM imidazole, pH 3.5). Any protein in VDAC1-bound and -unbound fractions was evaluated by western blot. Three independent experiments were performed for each condition tested.
(In general: A western blot detects proteins with antibodies after separation by electrophoresis.)

The test system of experiment [2] is human VDAC1 reconstituted into PLB. Nature of the experiment: VDAC1 channel conductance in planar lipid bilayer (PLB). The class given is biochemical. The following applies: for effect on single channel VDAC1 conductance: +25 mV, 0.2 μM SOD1 proteins or 15 μM peptide; for effect on voltage-dependence of VDAC1, triangular voltage ramps: symmetric 1 M KCl, ramps 0 to ±50 mV. The text has this: Purified VDAC1 was reconstituted into a planar phospholipid bilayer (PLB) and its channel conductance was monitored before and after addition of SOD1 proteins, on cis or trans side of the membrane. […] Moreover, the effect of SOD1 proteins on the voltage-dependence of VDAC1 was monitored by triangular voltage ramps from 0 to ±50 mV. […] The current linearly follows the voltage applied up to about ±25 mV, where VDAC1 decreases its channel conductance through step-like transitions, remaining in low-conducting states.
Under standard experimental condition (1 M KCl and an applied potential of +25 mV) the VDAC1 channel was mainly in low-conducting closed states. […] The effect of NHK1 on the channel conductance is even more evident by plotting the amplitude values obtained in the current traces as a function of the number of events. While for VDAC1 alone the amplitude values appear as a main peak corresponding to the closed states (Fig. 4B), the presence of NHK1 caused a different distribution of events: an additional, different peak corresponding to the open state was visible, together with the closed states peak (Fig. 4C). […] The effect of NHK1 on the voltage-dependence of VDAC1 was monitored by triangular voltage ramps. […] In this experiment, indeed, VDAC1 completely loose, very precociously (already at ±15 mV applied), its ability to linearly respond to the applied voltage: a continuous switch from open to closed states was observed, especially at positive potentials. […] Upon NHK1 incubation, VDAC1 current transitions at positive voltages are very noisy and pass through different sub-conductance states (Fig. 4F).
Purified VDAC1 was reconstituted into a Planar Lipid Bilayer (PLB) apparatus (Warner Instruments, Hamden, CT, USA), previously described. Bilayers were prepared using asolectin (Sigma) dissolved in decane (Sigma) containing 1% chloroform (Sigma) across a 200 μm hole in a derlin cuvette (Warner Instruments). Experiments were performed in 1 M KCl, 10 mM Hepes, pH 7.0[40][46]. Control experiments using empty membrane and/or detergents were performed to avoid activity in any of the above solutions. Data were acquired using a Bilayer Clamp amplifier (Warner Instruments) at 100 μs/point, filtered at 200 Hz and analyzed offline using Clampfit 10.4 program set (Axon Instruments, Union City, CA, USA). Single channel analysis of VDAC1 was performed in presence or not of 0.2 μM of SOD1 WT or G93A, 15 μM NHK1 or ScNHK1 peptide.

Another experiment concerns NSC34-SOD1G93A cells. Nature of the experiment: Mitochondrial membrane potential (ΔΨm) by flow cytometry. Particulars: TMRM. The class given is cell-based, mouse. The protocol:
To evaluate the NHK1 influence on mitochondrial functionality, mitochondrial membrane potential variation (ΔΨm) was assayed in the presence of NHK1 peptide or HK1. ΔΨm is related to the ATP production by oxidative phosphorylation; therefore, it is considered an indication of good mitochondrial and cellular health. Using mitochondria-targeted fluorescent probes, we estimated in flow cytometry the rate of mitochondrial depolarization. NSC34-SOD1G93A cells shown a high level of depolarized mitochondria compared to NSC34-SOD1WT. […] Similarly to NHK1 peptide, the expression of the whole HK1 reduced the depolarized mitochondria of about 15% (Fig. 7C).
ΔΨm was measured using tetramethyl-rhodamine methyl ester (TMRM) or Rhodamine 123 (RH123) (Molecular Probes) according to the excitation/emission wavelength of the transfection reporter or of the transfected fluorescent protein used. Both probes accumulates in active mitochondria due to their positive charge, whereby the reduction of ΔΨm leads to the release of fluorescent probes. Transfected NSC34-SOD1WT and NSC34-SOD1G93A cells were washed with PBS and incubated for 30 min at 37 °C with Krebs Ringer Buffered Saline supplemented with either 200 nM TMRM or 0.1 μg/mL RH123 and 20 μM Verapamil (as a multi drug-resistant pump inhibitor) (Sigma). Cells were then harvested and immediately analyzed by flow cytometry. Cells were excited by an air-cooled argon 488 nm laser, reading the GFP fluorescence of HK1-GFP or RH123 fluorescence in FL1 log mode; TMRM and mtDsRED used as transfection reporter of NHK1 peptide were read on FL3 log mode. Only viable cells detected by reading the scattering indicated as FSC and SSC, were considered for our analysis. The threshold physiological value of ΔΨm was estimated by using cells exposed to 1 μM of the uncoupling agent FCCP as a negative control. Data reported are representative for three sets of independent experiments, each performed at least in triplicate and based on 20.000 events for each group. Data were statistical analyzed by chi-square test. A p < 0,001 was taken as significant.
A general note: A flow cytometer gives signals particle by particle.

With “FAQLTIALAYY [ScNHK1, scramble peptide (…) synthetized and used as control, reference compound]”, the “effect on SOD1 G93A in VDAC1-bound fraction” value in experiment [1] (scramble control, same assay) is recorded as “No similar effect”. In addition, in experiment [2] (1 M KCl), the “effect on single channel VDAC1 conductance” value is “No influence on the electrophysiological activity”. Also, in experiment [2], the “effect on voltage-dependence of VDAC1, triangular voltage ramps” value is “no difference was found”. In the experiment with NSC34-SOD1G93A cells (NSC34-SOD1G93A expressing scramble peptide), the “partial recovery of physiological ΔΨm” value was “not”.

For “IAAQLLAYYFT [NHK1, peptide corresponding to residues 2–12 (N-terminal region) of human HK1 protein (…)]”, the results for the “reduction of SOD1 G93A in VDAC1-bound fraction” value in experiment [1] (10 μM peptide pre-incubated 1 h) and in experiment [1] (25 μM peptide pre-incubated 1 h) were 40% and 80%, respectively. Further, the “effect on single channel VDAC1 conductance” value in experiment [2] (1 M KCl) is “induced several fast and reversible events of VDAC1 low-conducting closed states”. Besides, the “negative membrane potential at which regions of decreased slope already appear (I-V plot)” value in experiment [2] (1 M KCl, upon peptide incubation) was −10 mV. In addition, the “effect on voltage-dependence of VDAC1, triangular voltage ramps” value in experiment [2] is recorded as “strongly affected the channel voltage-dependence of VDAC1”. Besides, the “reduction of depolarized mitochondria” value with NSC34-SOD1G93A cells (NSC34-SOD1G93A expressing peptide, n = 3) was 20%.
